From PubChem BioAssay AID258 (DTP/NCI, 2004)
Where “and” joins values, the source holds several entries; their conditions need not be identical. Identical values can stand only once. Toxic doses and inconclusive results are not listed.

Test system: CD2F1 mice, L1210 leukemia sc, survival T/C
Assay: NCI In Vivo Anticancer Drug Screen. Data for tumor model L1210 Leukemia (subcutaneous) in CD2F1 (CDF1) mice
Details: endpoint: median survival time, higher = longer survival
Outline: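 Read-out: survival or tumor size. Value = treated (T) / vehicle control (C). Transplantable tumor in mice.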

O=c1n(CC2CO2)c(=O)n(CC2CO2)c(=O)n1CC1CO1 (stereo not drawn)
T/C (dose: 12.5 mg/kg/injection, schedule: Q04DX003 (ip), vehicle: saline): 106 % of control
T/C (dose: 25.0 mg/kg/injection, schedule: Q04DX003 (ip), vehicle: saline): 114 % of control
T/C (dose: 40.0 mg/kg/injection, schedule: Q01DX009 (ip), vehicle: saline): 150 % of control and 191 % of control
T/C (dose: 40.0 mg/kg/injection, schedule: Q04DX003 (ip), vehicle: saline): 114 % of control
T/C (dose: 50.0 mg/kg/injection, schedule: Q01DX009 (ip), vehicle: saline): 172 % of control and 193 % of control
T/C (dose: 50.0 mg/kg/injection, schedule: Q04DX003 (ip), vehicle: saline): 153 % of control and 172 % of control

CN1CCN(c2ccc3nc(-c4ccc5nc(-c6ccc(O)cc6)[nH]c5c4)[nH]c3c2)CC1
T/C (dose: 4.7 mg/kg/injection, schedule: Q03HX024 (ip), vehicle: saline): 102 % of control
T/C (dose: 9.4 mg/kg/injection, schedule: Q03HX024 (ip), vehicle: saline): 107 % of control
T/C (dose: 14.0 mg/kg/injection, schedule: Q03HX008 (ip), vehicle: saline): 102 % of control
T/C (dose: 18.75 mg/kg/injection, schedule: Q03HX024 (ip), vehicle: saline): 110 % of control
T/C (dose: 28.0 mg/kg/injection, schedule: Q03HX008 (ip), vehicle: saline): 113 % of control
T/C (dose: 37.5 mg/kg/injection, schedule: Q03HX024 (ip), vehicle: saline): 119 % of control
T/C (dose: 37.5 mg/kg/injection, schedule: Q04DX003 (ip), vehicle: saline): 101 % of control
T/C (dose: 75.0 mg/kg/injection, schedule: Q04DX003 (ip), vehicle: saline): 107 % of control
T/C (dose: 112.0 mg/kg/injection, schedule: Q01DX001 (ip), vehicle: suspension in saline): 104 % of control
T/C (dose: 150.0 mg/kg/injection, schedule: Q04DX003 (ip), vehicle: saline): 110 % of control

CC[C@](O)(C(=O)O)c1cc2n(c(=O)c1CO)Cc1cc3ccccc3nc1-2
T/C (dose: 1.33 mg/kg/injection, schedule: Q01DX009 (ip), vehicle: saline): 121 % of control
T/C (dose: 1.33 mg/kg/injection, schedule: Q01DX009 (sc), vehicle: saline): 122 % of control
T/C (dose: 2.0 mg/kg/injection, schedule: Q01DX009 (ip), vehicle: saline): 154 % of control
T/C (dose: 4.0 mg/kg/injection, schedule: Q01DX009 (ip), vehicle: saline): 113 % of control
T/C (dose: 5.0 mg/kg/injection, schedule: Q01DX009 (sc), vehicle: saline): 101 % of control
T/C (dose: 8.0 mg/kg/injection, schedule: Q01DX009 (ip), vehicle: saline): 86 % of control
T/C (dose: 8.0 mg/kg/injection, schedule: Q01DX009 (sc), vehicle: saline): 86 % of control
T/C (dose: 12.0 mg/kg/injection, schedule: Q01DX009 (sc), vehicle: saline): 115 % of control
T/C (dose: 16.0 mg/kg/injection, schedule: Q01DX009 (sc), vehicle: saline): 113 % of control

CCOC(C)C(/C=N/NC(N)=S)=NNC(N)=S (stereo not drawn)
T/C (dose: 65.0 mg/kg/injection, schedule: Q01DX Z (sc), vehicle: carboxymethylcellulose (CMC)): 110 % of control
T/C (dose: 108.0 mg/kg/injection, schedule: Q01DX Z (sc), vehicle: carboxymethylcellulose (CMC)): 110 % of control
T/C (dose: 180.0 mg/kg/injection, schedule: Q01DX Z (sc), vehicle: carboxymethylcellulose (CMC)): 120 % of control
T/C (dose: 300.0 mg/kg/injection, schedule: Q01DX Z (sc), vehicle: carboxymethylcellulose (CMC)): 110 % of control

O=C(Nc1cccnc1)c1ccc([N+](=O)[O-])s1
T/C (dose: 25.0 mg/kg/injection, schedule: Q01DX005 (ip), vehicle: saline): 108 % of control
T/C (dose: 50.0 mg/kg/injection, schedule: Q01DX005 (ip), vehicle: saline): 102 % of control
T/C (dose: 100.0 mg/kg/injection, schedule: Q01DX005 (ip), vehicle: saline): 111 % of control

C[C@@](O)(/C=C/[C@H]1CC=CC(=O)O1)[C@@H](C[C@@H](O)\C=C/C=C\C=C\CO)OP(=O)(O)O
T/C (dose: 0.78 mg/kg/injection, schedule: Q01DX009 (ip), vehicle: other): 104 % of control
T/C (dose: 1.56 mg/kg/injection, schedule: Q01DX009 (ip), vehicle: other): 116 % of control
T/C (dose: 3.13 mg/kg/injection, schedule: Q01DX009 (ip), vehicle: other): 157 % of control
T/C (dose: 6.25 mg/kg/injection, schedule: Q01DX009 (ip), vehicle: other): 197 % of control

C[C@]12CC[C@H](OC3OC(CO)C(O)C(O)C3O)C[C@H]1CC[C@@H]1[C@@H]2CC[C@]2(C)[C@@H](C3=CCOC3=O)CC[C@]12O (stereo partly drawn)
T/C (dose: 3.0 mg/kg/injection, schedule: Q01DX Z (sc), vehicle: saline): 110 % of control
T/C (dose: 5.0 mg/kg/injection, schedule: Q01DX Z (sc), vehicle: saline): 110 % of control
T/C (dose: 8.4 mg/kg/injection, schedule: Q01DX Z (sc), vehicle: saline): 110 % of control

S=c1nc[nH]c2nc[nH]c12.[Ag]
T/C (dose: 100.0 mg/kg/injection, schedule: Q01DX Z (sc), vehicle: water): 100 % of control
T/C (dose: 200.0 mg/kg/injection, schedule: Q01DX Z (sc), vehicle: water): 100 % of control
T/C (dose: 400.0 mg/kg/injection, schedule: Q01DX Z (sc), vehicle: water): 100 % of control
T/C (dose: 800.0 mg/kg/injection, schedule: Q01DX Z (sc), vehicle: water): 100 % of control
T/C (dose: 1600.0 mg/kg/injection, schedule: Q01DX Z (sc), vehicle: water): 100 % of control

O=C1c2c(O)ccc(O)c2C(=O)c2c(NCCNCCO)ccc(NCCNCCO)c21
T/C (dose: 0.5 mg/kg/injection, schedule: Q01DX009 (ip), vehicle: saline with Tween-80): 105 % of control and 114 % of control and 116 % of control
T/C (dose: 1.0 mg/kg/injection, schedule: Q01DX009 (ip), vehicle: saline with Tween-80): 114 % of control
T/C (dose: 2.0 mg/kg/injection, schedule: Q01DX009 (ip), vehicle: saline with Tween-80): 168 % of control

O=c1[nH]c(=O)n(C2CC(O)C(CO)O2)cc1C(F)(F)F (stereo not drawn)
T/C (dose: 2.5 mg/kg/injection, schedule: Q01DX009 (ip), vehicle: saline with Tween-80): 106 % of control
T/C (dose: 5.0 mg/kg/injection, schedule: Q01DX009 (ip), vehicle: saline with Tween-80): 114 % of control
T/C (dose: 10.0 mg/kg/injection, schedule: Q01DX009 (ip), vehicle: saline with Tween-80): 117 % of control and 121 % of control
T/C (dose: 10.0 mg/kg/injection, schedule: Q01DX009 (sc), vehicle: saline): 111 % of control and 122 % of control
T/C (dose: 13.3 mg/kg/injection, schedule: Q01DX009 (sc), vehicle: saline with Tween-80): 122 % of control
T/C (dose: 20.0 mg/kg/injection, schedule: Q01DX009 (sc), vehicle: saline): 111 % of control
T/C (dose: 40.0 mg/kg/injection, schedule: Q01DX009 (ip), vehicle: saline with Tween-80): 153 % of control
T/C (dose: 40.0 mg/kg/injection, schedule: Q01DX009 (sc), vehicle: saline): 118 % of control and 123 % of control
T/C (dose: 60.0 mg/kg/injection, schedule: Q01DX009 (ip), vehicle: saline with Tween-80): 156 % of control
T/C (dose: 60.0 mg/kg/injection, schedule: Q01DX009 (sc), vehicle: saline with Tween-80): 152 % of control
T/C (dose: 80.0 mg/kg/injection, schedule: Q01DX009 (ip), vehicle: saline with Tween-80): 150 % of control
T/C (dose: 80.0 mg/kg/injection, schedule: Q01DX009 (sc), vehicle: saline with Tween-80): 154 % of control
T/C (dose: 90.0 mg/kg/injection, schedule: Q01DX009 (sc), vehicle: saline with Tween-80): 167 % of control
T/C (dose: 105.0 mg/kg/injection, schedule: Q01DX009 (sc), vehicle: saline with Tween-80): 150 % of control
T/C (dose: 120.0 mg/kg/injection, schedule: Q01DX009 (sc), vehicle: saline with Tween-80): 158 % of control and 162 % of control
T/C (dose: 135.0 mg/kg/injection, schedule: Q01DX009 (sc), vehicle: saline with Tween-80): 162 % of control
T/C (dose: 160.0 mg/kg/injection, schedule: Q01DX009 (ip), vehicle: saline with Tween-80): 121 % of control
T/C (dose: 160.0 mg/kg/injection, schedule: Q01DX009 (sc), vehicle: saline): 120 % of control
T/C (dose: 180.0 mg/kg/injection, schedule: Q01DX009 (sc), vehicle: saline with Tween-80): 120 % of control
T/C (dose: 180.0 mg/kg/injection, schedule: Q01DX009 (sc), vehicle: saline): 161 % of control
T/C (dose: 211.2 mg/kg/injection, schedule: Q01DX009 (sc), vehicle: saline with Tween-80): 151 % of control
T/C (dose: 240.0 mg/kg/injection, schedule: Q01DX009 (sc), vehicle: saline): 158 % of control
T/C (dose: 320.0 mg/kg/injection, schedule: Q01DX009 (ip), vehicle: saline with Tween-80): 108 % of control
T/C (dose: 320.0 mg/kg/injection, schedule: Q01DX009 (sc), vehicle: saline with Tween-80): 156 % of control
T/C (dose: 320.0 mg/kg/injection, schedule: Q01DX009 (sc), vehicle: saline): 119 % of control
T/C (dose: 960.0 mg/kg/injection, schedule: Q01DX009 (sc), vehicle: saline with Tween-80): 122 % of control
